From paper PMC9007462 (Journal of Medicinal Chemistry, 2022)

Experiments:
Human ALDH1A3 = biological target: T1, Human ALDH1A3 (Homo sapiens, UniProt P47895); experiment: ALDH1A3 inhibition, IC50, Ki and type of inhibition; type: biochemical; conditions: for IC50: 6 μM hexanal as substrate
T1 construct: made in house
T1 sequence (P47895 1-512): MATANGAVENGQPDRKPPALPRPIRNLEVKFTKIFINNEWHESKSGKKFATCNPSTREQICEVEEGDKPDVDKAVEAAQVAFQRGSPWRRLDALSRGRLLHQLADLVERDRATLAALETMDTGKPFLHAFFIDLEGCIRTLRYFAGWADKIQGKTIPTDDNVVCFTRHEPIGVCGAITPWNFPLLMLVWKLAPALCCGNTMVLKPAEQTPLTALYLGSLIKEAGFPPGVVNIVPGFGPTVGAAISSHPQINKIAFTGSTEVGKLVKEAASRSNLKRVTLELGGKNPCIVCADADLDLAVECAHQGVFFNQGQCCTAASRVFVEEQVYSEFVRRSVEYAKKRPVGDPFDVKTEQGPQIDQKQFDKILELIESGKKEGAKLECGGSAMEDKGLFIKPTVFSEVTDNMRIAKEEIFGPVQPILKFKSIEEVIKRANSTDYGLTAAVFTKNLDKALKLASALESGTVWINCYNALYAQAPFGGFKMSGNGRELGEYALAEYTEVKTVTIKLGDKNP

Human ALDH3A1 = biological target: T2, Human ALDH3A1 (Homo sapiens, UniProt P30838); experiment: DEAB analogues as substrates of ALDH3A1 (substrate activity and kinetics); type: biochemical; conditions: for ALDH3A1 substrate activity: 10 μM compound as substrate, relative to activity with 10 μM 4-NBA (Figure S2)
T2 construct: made in house
T2 sequence (P30838 1-453): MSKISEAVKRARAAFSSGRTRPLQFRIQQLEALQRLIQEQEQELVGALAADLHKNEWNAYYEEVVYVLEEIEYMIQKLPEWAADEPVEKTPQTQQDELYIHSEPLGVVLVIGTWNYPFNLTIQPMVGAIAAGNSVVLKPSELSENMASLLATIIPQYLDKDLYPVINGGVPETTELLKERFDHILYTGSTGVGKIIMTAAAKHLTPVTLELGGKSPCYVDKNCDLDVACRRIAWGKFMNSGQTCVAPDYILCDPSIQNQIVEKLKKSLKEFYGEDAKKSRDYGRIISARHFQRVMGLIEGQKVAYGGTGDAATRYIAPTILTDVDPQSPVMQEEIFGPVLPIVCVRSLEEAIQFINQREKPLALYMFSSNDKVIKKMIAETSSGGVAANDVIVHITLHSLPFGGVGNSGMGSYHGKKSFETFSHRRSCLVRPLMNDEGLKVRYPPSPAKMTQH
Procedure: Human ALDH1A1, ALDH1A3, and ALDH3A1 were cloned and recombinantly expressed from the pET-30 Xa/LIC vector. Protein purification was achieved by affinity chromatography on a nickel-charged chelating Sepharose Fast Flow 5-mL column (His Trap column, Cytiva), which specifically binds the protein due to its N-terminal (His)6 tag, using an ÄKTA FPLC system (Cytiva), as previously described.[55] Enzymes including the His tag were stored at −80 °C in 20 mM Tris/HCl and 0.5 M NaCl, pH 8.0, until use. Reaction buffers were as follows: ALDH1A1 was assayed in 50 mM HEPES, 0.5 mM EDTA, and 0.5 mM DTT, pH 8.0; ALDH1A3 was assayed in 50 mM HEPES, 30 mM MgCl2, and 5 mM DTT, pH 8.0; and ALDH3A1 was assayed in 50 mM Tris–HCl and 5 mM DTT, pH 8.0. Activity under standard conditions was measured fluorimetrically at 25 °C using a Cary Eclipse (Varian) fluorimeter to follow the purification procedure and to check the enzyme concentration before each kinetic experiment. The fluorescence of NADH was characterized at 460 nm with excitation at 340 nm, and 5 μM NAD(P)H was added as an internal standard to obtain the absolute reaction rates.[55] Standard activity was measured at saturating concentrations of substrate using 30 μM hexanal (ALDH1A1), 250 μM hexanal (ALDH1A3), or 250 μM 4-NBA (ALDH3A1). NAD^+ was 500 μM for ALDH1A1 and ALDH1A3, and NADP^+ was 1 mM for ALDH3A1.
According to their structure with a carbonyl group, compounds were tested for their substrate properties against ALDH1A1, ALDH1A3, and ALDH3A1. […] Results are expressed as the percentage of activity at 10 μM versus the activity at 10 μM of their standard substrate (hexanal or 4-NBA). Values are expressed as the mean ± SE.
To calculate the Km value of compound 18 as a substrate for ALDH3A1, several concentrations of compound 18 were used. Experimental values were fitted to the adaptation of the Michaelis–Menten equation for substrate inhibition [drawing 1] and shown as the mean ± SE.

LNCaP = experiment: MTT chemosensitivity assay, LNCaP; type: cell-based, human; conditions: Homo sapiens, LNCaP, 96 h exposure, ± SD, at least three independent experiments

SMILES | IC50 (Human ALDH1A3; mean ± SE) | type of inhibition ALDH1A3 (Human ALDH1A3; hexanal as substrate) | Ki (Human ALDH1A3; hexanal as substrate, fit to competitive inhibition equation, mean ± SE) | fold difference in capacity to inhibit ALDH1A3, 14 vs 13 (Human ALDH1A3; ratio of IC50 values) | ALDH3A1 substrate activity (Human ALDH3A1) | IC50 (LNCaP) | Ksi as ALDH3A1 substrate (Human ALDH3A1; fit to substrate inhibition equation, mean ± SE) | Km (Human ALDH3A1; mean ± SE) | kcat as ALDH3A1 substrate (Human ALDH3A1; mean ± SE)
CCCN(CCC)c1ccc(C=O)cc1Br [Compound 14, 3-Bromo-4-(dipropylamino)benzaldehyde] | 0.63 ± 0.02 µM | competitive | 0.46 ± 0.15 µM | approximately 17 fold | lower than 5% | 25 ± 1 µM | – | – | –
CCCN(CCC)c1ccc(C=O)cc1[N+](=O)[O-] [Compound 18, 4-(Dipropylamino)-3-Nitrobenzaldehyde] | 106 ± 16 µM | – | – | – | 4.21% | 31 ± 6 µM | 113 ± 25 µM | 2.82 ± 0.35 µM | 13.4 ± 0.7 min^–1
